Data: ChEMBL document CHEMBL1201862, “PubChem BioAssay data set” (2004)
Activity calls are given as the source filed them.

Assays:
[1] = system: Streptococcus sp. 'group A'; experiment: growth inhibition of control SK(-) GAS strain, dose response, counter-screen for streptokinase expression inhibitor project, luminescence, kanamycin, BacTiterGlo, confirmation (AID 1900); format: functional, organism-based
[2] = target: T1, Replicative DNA helicase DnaB (Mycobacterium tuberculosis, UniProt P9WMR3); experiment: DnaB intein splicing inhibitors, dose response, biochemical, cell-free fluorescence (AID 449749); format: functional
T1 sequence (P9WMR3 whole entry): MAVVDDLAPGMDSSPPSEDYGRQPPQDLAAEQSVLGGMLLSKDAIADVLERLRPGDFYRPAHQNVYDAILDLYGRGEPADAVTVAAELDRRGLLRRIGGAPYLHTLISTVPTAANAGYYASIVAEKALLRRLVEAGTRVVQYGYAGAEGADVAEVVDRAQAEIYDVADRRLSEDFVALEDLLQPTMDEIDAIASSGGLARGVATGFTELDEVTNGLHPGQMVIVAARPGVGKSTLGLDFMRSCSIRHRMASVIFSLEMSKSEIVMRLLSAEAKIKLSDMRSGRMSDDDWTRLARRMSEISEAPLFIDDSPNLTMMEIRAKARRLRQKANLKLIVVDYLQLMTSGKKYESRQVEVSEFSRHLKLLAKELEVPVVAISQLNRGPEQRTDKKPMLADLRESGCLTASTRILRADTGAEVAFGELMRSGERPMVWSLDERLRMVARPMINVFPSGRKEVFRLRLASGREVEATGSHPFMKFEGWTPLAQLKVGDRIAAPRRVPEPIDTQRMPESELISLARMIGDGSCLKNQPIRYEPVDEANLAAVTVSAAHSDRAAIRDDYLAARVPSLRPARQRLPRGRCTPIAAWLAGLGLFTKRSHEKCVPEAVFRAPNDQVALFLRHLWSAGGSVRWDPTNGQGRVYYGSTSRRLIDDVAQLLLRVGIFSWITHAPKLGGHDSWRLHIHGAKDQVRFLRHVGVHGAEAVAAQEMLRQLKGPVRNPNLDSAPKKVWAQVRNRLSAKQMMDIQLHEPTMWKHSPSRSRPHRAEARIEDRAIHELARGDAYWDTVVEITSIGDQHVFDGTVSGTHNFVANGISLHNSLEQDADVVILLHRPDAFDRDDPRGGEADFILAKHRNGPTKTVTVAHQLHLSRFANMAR

[3] = target: T2, Apoptotic protease-activating factor 1 (Homo sapiens, UniProt O14727); format: functional
T2 sequence (O14727 whole entry): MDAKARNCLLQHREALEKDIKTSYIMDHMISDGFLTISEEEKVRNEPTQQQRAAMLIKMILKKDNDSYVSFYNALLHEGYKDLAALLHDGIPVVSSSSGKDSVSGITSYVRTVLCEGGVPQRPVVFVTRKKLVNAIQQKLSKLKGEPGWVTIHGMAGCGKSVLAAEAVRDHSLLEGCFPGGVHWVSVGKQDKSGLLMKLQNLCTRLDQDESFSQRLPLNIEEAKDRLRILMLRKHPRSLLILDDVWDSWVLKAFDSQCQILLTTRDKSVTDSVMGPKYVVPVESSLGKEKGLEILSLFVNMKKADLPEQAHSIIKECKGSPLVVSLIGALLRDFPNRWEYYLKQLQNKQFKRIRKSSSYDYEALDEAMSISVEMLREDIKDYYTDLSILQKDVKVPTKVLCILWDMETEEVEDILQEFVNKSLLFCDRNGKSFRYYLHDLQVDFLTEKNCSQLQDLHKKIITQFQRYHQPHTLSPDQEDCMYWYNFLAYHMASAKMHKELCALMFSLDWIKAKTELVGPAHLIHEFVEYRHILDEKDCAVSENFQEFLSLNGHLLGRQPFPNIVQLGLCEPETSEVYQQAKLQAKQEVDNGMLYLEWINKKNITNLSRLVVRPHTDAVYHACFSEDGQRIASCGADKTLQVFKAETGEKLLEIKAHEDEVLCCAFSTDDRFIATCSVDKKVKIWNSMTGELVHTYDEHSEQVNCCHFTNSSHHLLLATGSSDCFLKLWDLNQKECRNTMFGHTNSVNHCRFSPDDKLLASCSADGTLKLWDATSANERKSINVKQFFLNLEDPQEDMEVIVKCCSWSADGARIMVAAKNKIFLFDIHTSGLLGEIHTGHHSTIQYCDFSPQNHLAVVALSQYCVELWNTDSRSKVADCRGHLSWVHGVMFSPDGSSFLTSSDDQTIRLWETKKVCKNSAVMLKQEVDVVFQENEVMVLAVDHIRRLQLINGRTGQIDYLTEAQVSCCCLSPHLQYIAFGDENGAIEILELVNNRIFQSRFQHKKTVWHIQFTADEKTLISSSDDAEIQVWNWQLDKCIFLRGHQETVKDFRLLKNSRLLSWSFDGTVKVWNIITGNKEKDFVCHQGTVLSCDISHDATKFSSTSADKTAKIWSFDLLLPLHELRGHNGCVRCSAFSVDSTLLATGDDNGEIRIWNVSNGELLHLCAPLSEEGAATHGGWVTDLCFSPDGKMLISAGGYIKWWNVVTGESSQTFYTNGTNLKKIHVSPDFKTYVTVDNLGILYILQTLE

Protein RecA = target: T3, Protein RecA (Mycobacterium tuberculosis, UniProt P9WHJ3); experiment: Fluorescence Cell-Free Homogeneous Dose Retest to Identify Inhibitors of RecA-Intein Splicing Activity. [Related pubchem assays (depositor defined):AID2097, AID2223, AID489010, AID492950]; format: functional
T3 sequence (P9WHJ3 whole entry): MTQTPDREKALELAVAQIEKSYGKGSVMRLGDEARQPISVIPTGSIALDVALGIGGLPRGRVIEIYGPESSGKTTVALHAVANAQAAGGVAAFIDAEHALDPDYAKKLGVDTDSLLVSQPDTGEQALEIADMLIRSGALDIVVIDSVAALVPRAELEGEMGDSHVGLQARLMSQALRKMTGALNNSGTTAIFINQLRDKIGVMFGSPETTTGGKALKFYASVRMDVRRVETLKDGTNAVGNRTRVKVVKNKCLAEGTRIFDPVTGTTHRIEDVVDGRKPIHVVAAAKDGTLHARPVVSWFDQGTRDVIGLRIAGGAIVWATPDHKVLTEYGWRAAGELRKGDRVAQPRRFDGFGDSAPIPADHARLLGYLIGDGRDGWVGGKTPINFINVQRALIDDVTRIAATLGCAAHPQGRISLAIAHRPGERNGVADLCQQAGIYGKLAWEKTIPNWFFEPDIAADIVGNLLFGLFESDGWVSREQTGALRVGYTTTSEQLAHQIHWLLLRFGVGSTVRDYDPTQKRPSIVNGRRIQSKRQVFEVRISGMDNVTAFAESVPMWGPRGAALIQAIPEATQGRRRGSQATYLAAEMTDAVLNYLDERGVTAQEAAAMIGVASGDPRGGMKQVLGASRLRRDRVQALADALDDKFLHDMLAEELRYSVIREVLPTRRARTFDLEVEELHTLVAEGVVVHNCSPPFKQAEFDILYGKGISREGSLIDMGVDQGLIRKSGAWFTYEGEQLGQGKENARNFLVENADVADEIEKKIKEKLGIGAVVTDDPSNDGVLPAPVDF

**Q.** For CCCCCCCCCC[N+](C)(C)CC/C=C1/c2ccccc2Sc2ccc(Cl)cc21, which EC50 [1] is on record?
**A.** 1.75 µM (active)

**Q.** What about the AC50 [2] of the same compound?
**A.** > 380 µM (inconclusive)

**Q.** What about the IC50 [3] of the same compound?
**A.** 10.6 µM (active)

**Q.** What about the EC50 (Protein RecA) of the same compound?
**A.** 5.8 µM (active)

**Q.** With O=C(NCCc1ccccc1)C(c1cccs1)N(C(=O)CCl)c1ccc(Cl)cc1 (stereo not given) as the compound, how does the AC50 [2] read?
**A.** 1.49 µM (active)

**Q.** And the EC50 (Protein RecA)?
**A.** 0.233 µM (active)

**Q.** How did the EC50 [1] turn out when COc1cc(/C=C/c2cc[n+](C)cc2)ccc1OCC(=O)Nc1ccc(Cl)c(Cl)c1 was run?
**A.** 12.7 µM (active)

**Q.** What about the AC50 [2] of the same compound?
**A.** > 380 µM (inactive)

**Q.** What about the IC50 [3] of the same compound?
**A.** 22.6 µM (active)

**Q.** What about the EC50 (Protein RecA) of the same compound?
**A.** 17.2 µM (active)
